“And” between values parts separate entries of the source, which are not always exact repeats. Equal entries are not always repeated. Inconclusive results and toxic doses are left out. Peptide text beside a SMILES is read from it. * marks the point of attachment. ONp = O=[N+]([O-])c1ccc(O*)cc1; Tos = Cc1ccc(S(=O)(=O)*)cc1
System: L1210 leukemia ip in BDF1 mice, survival T/C
Assay: NCI In Vivo Anticancer Drug Screen. Data for tumor model L1210 Leukemia (intraperitoneal) in B6D2F1 (BDF1) mice
Settings: endpoint: mean survival time, higher = longer survival
Method in brief: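 Transplanted-tumor mice were given test agent; controls received vehicle only. Survival readings from the two groups were divided (treated over control).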

[1] = dose: 100.0 mg/kg/injection, schedule: Q01DX009 (ip), vehicle: Klucel (hydroxypropylcellulose) (HPC)
[2] = dose: 50.0 mg/kg/injection, schedule: Q01DX001 (ip), vehicle: saline
[3] = dose: 100.0 mg/kg/injection, schedule: Q01DX001 (ip), vehicle: saline
[4] = dose: 100.0 mg/kg/injection, schedule: Q04DX003 (ip), vehicle: saline
[5] = dose: 200.0 mg/kg/injection, schedule: Q01DX001 (ip), vehicle: saline
[6] = dose: 200.0 mg/kg/injection, schedule: Q04DX003 (ip), vehicle: saline
[7] = dose: 400.0 mg/kg/injection, schedule: Q01DX001 (ip), vehicle: saline
[8] = dose: 400.0 mg/kg/injection, schedule: Q04DX003 (ip), vehicle: saline
[9] = dose: 100.0 mg/kg/injection, schedule: Q01DX001 (ip), vehicle: Klucel (hydroxypropylcellulose) (HPC)
[10] = dose: 100.0 mg/kg/injection, schedule: Q04DX002 (ip), vehicle: Klucel (hydroxypropylcellulose) (HPC)
[11] = dose: 200.0 mg/kg/injection, schedule: Q01DX001 (ip), vehicle: Klucel (hydroxypropylcellulose) (HPC)
[12] = dose: 200.0 mg/kg/injection, schedule: Q04DX002 (ip), vehicle: Klucel (hydroxypropylcellulose) (HPC)
[13] = dose: 400.0 mg/kg/injection, schedule: Q01DX001 (ip), vehicle: Klucel (hydroxypropylcellulose) (HPC)
[14] = dose: 400.0 mg/kg/injection, schedule: Q04DX002 (ip), vehicle: Klucel (hydroxypropylcellulose) (HPC)

CC1(C)CC(OP(=O)(OC2CC(C)(C)N(O)C(C)(C)C2)c2ccccc2)CC(C)(C)N1O
T/C (dose: 100.0 mg/kg/injection, schedule: Q01DX001 (ip), vehicle: water): 91 % of control
T/C (dose: 200.0 mg/kg/injection, schedule: Q01DX001 (ip), vehicle: water): 106 % of control
T/C (dose: 400.0 mg/kg/injection, schedule: Q01DX001 (ip), vehicle: water): 89 % of control

O=C(O)C(Br)C(Br)C(=O)Nc1cccc(C(F)(F)F)c1 (stereo not drawn)
T/C (dose: 25.0 mg/kg/injection, schedule: Q01DX009 (ip), vehicle: Klucel (hydroxypropylcellulose) (HPC)): 96 % of control
T/C (dose: 50.0 mg/kg/injection, schedule: Q01DX009 (ip), vehicle: Klucel (hydroxypropylcellulose) (HPC)): 96 % of control
T/C [1]: 103 % of control
T/C (dose: 100.0 mg/kg/injection, schedule: Q01DX009 (ip), vehicle: other): 96 % of control

Nc1ccc(OCCCc2c(-c3ccccc3)nc(N)[nH]c2=O)cc1
T/C [2]: 93 % of control
T/C [3]: 96 % of control
T/C [4]: 100 % of control
T/C [5]: 102 % of control
T/C [6]: 96 % of control
T/C [7]: 102 % of control
T/C [8]: 90 % of control

NS(=O)(=O)Cc1ccccc1
T/C (dose: 25.0 mg/kg/injection, schedule: Q01DX009 (ip), vehicle: saline): 92 % of control
T/C (dose: 50.0 mg/kg/injection, schedule: Q01DX009 (ip), vehicle: saline): 94 % of control
T/C (dose: 100.0 mg/kg/injection, schedule: Q01DX009 (ip), vehicle: saline): 100 % of control

NCCCC(N)C(=O)NCCCCCCCCCCNC(=O)C(N)CCCN (stereo not drawn)
T/C (dose: 10.0 mg/kg/injection, schedule: Q01DX Z (ip), vehicle: saline): 93 % of control
T/C (dose: 30.0 mg/kg/injection, schedule: Q01DX Z (ip), vehicle: saline): 101 % of control

CC1(C)CC(C(N)=O)C(C)(C)N1O (stereo not drawn)
T/C (dose: 75.0 mg/kg/injection, schedule: Q01DX009 (ip), vehicle: other): 104 % of control
T/C (dose: 150.0 mg/kg/injection, schedule: Q01DX009 (ip), vehicle: other): 101 % of control
T/C (dose: 300.0 mg/kg/injection, schedule: Q01DX009 (ip), vehicle: other): 100 % of control

COc1cc(Br)c2c(c1OC)C1(CC[N+](C)(C)C)CC(=O)CCC1CC2 (stereo not drawn)
T/C (dose: 12.5 mg/kg/injection, schedule: Q01DX001 (ip), vehicle: saline): 97 % of control
T/C (dose: 25.0 mg/kg/injection, schedule: Q01DX001 (ip), vehicle: saline): 97 % of control
T/C [2]: 94 % of control
T/C [3]: 97 % of control

COc1nc(Cl)nc2c1c(C#N)cn2C1OC(CO)C(O)C1O (stereo not drawn)
T/C (dose: 100.0 mg/kg/injection, schedule: Q01DX005 (ip), vehicle: saline): 113 % of control

OCc1ccccc1Cn1ccnc1
T/C [9]: 111 % of control
T/C [1]: 97 % of control and 105 % of control
T/C [10]: 102 % of control and 103 % of control
T/C (dose: 100.0 mg/kg/injection, schedule: Q04DX003 (ip), vehicle: Klucel (hydroxypropylcellulose) (HPC)): 105 % of control
T/C [11]: 103 % of control
T/C (dose: 200.0 mg/kg/injection, schedule: Q01DX009 (ip), vehicle: Klucel (hydroxypropylcellulose) (HPC)): 94 % of control and 87 % of control
T/C [12]: 97 % of control and 88 % of control
T/C (dose: 200.0 mg/kg/injection, schedule: Q04DX003 (ip), vehicle: Klucel (hydroxypropylcellulose) (HPC)): 111 % of control
T/C [13]: 99 % of control
T/C (dose: 400.0 mg/kg/injection, schedule: Q01DX009 (ip), vehicle: Klucel (hydroxypropylcellulose) (HPC)): 94 % of control and 96 % of control
T/C [14]: 97 % of control and 100 % of control
T/C (dose: 400.0 mg/kg/injection, schedule: Q04DX003 (ip), vehicle: Klucel (hydroxypropylcellulose) (HPC)): 110 % of control

c1ccc(-c2cc(-c3ccccc3)[o+]c(-c3ccccc3)c2)cc1
T/C [10]: 93 % of control
T/C [12]: 96 % of control
T/C [14]: 90 % of control

CN(C)C1CCCCCCC1
T/C (dose: 75.0 mg/kg/injection, schedule: Q01DX001 (ip), vehicle: acetone): 95 % of control

COc1ccc(OC)c(-n2cccc2/C=N/NC(N)=O)c1
T/C [10]: 97 % of control
T/C [12]: 108 % of control
T/C [14]: 93 % of control

CCCC#CC(=O)OCCCC
T/C (dose: 100.0 mg/kg/injection, schedule: Q04DX002 (ip), vehicle: saline with Tween-80): 93 % of control
T/C (dose: 200.0 mg/kg/injection, schedule: Q04DX002 (ip), vehicle: saline with Tween-80): 90 % of control
T/C (dose: 400.0 mg/kg/injection, schedule: Q04DX002 (ip), vehicle: saline with Tween-80): 90 % of control

CN(Cc1cnc2nc(N[Si](C)(C)C)nc(N[Si](C)(C)C)c2n1)c1ccc(C(=O)NC(CCC(=O)O[Si](C)(C)C)C(=O)O[Si](C)(C)C)cc1 (stereo not drawn)
T/C (dose: 0.62 mg/kg/injection, schedule: Q01DX009 (ip), vehicle: saline): 112 % of control
T/C (dose: 1.25 mg/kg/injection, schedule: Q01DX009 (ip), vehicle: saline with Tween-80): 164 % of control
T/C (dose: 1.25 mg/kg/injection, schedule: Q01DX009 (ip), vehicle: saline): 119 % of control
T/C (dose: 2.5 mg/kg/injection, schedule: Q01DX009 (ip), vehicle: saline with Tween-80): 187 % of control
T/C (dose: 5.0 mg/kg/injection, schedule: Q01DX009 (ip), vehicle: saline with Tween-80): 152 % of control
T/C (dose: 5.0 mg/kg/injection, schedule: Q01DX009 (ip), vehicle: saline): 183 % of control
T/C (dose: 10.0 mg/kg/injection, schedule: Q01DX009 (ip), vehicle: saline): 204 % of control

C1CCC2CCCCC2C1 (stereo not drawn)
T/C (dose: 3.13 mg/kg/injection, schedule: Q04DX002 (ip), vehicle: saline with Tween-80): 100 % of control
T/C (dose: 6.25 mg/kg/injection, schedule: Q04DX002 (ip), vehicle: saline with Tween-80): 103 % of control
T/C (dose: 12.5 mg/kg/injection, schedule: Q04DX002 (ip), vehicle: saline with Tween-80): 103 % of control
T/C (dose: 50.0 mg/kg/injection, schedule: Q04DX002 (ip), vehicle: saline): 98 % of control
T/C (dose: 100.0 mg/kg/injection, schedule: Q04DX002 (ip), vehicle: saline): 91 % of control
T/C (dose: 200.0 mg/kg/injection, schedule: Q04DX002 (ip), vehicle: saline): 91 % of control
T/C (dose: 400.0 mg/kg/injection, schedule: Q04DX002 (ip), vehicle: saline): 91 % of control

COCn1c(C(=O)c2ccc(OC)cc2)cc2ccccc21
T/C [10]: 102 % of control
T/C [12]: 95 % of control
T/C [14]: 98 % of control

Cc1ccc(S(=O)(=O)ON2C(=O)c3cccc4cc([N+](=O)[O-])cc(c34)C2=O)cc1
T/C [3]: 95 % of control
T/C [5]: 101 % of control
T/C [7]: 104 % of control

Cc1ccc(S(=O)(=O)NCC(=O)NCC(=O)Oc2ccc([N+](=O)[O-])cc2)cc1 (Tos-Gly-Gly-ONp)
T/C (dose: 100.0 mg/kg/injection, schedule: Q04DX003 (ip), vehicle: other): 105 % of control
T/C (dose: 200.0 mg/kg/injection, schedule: Q04DX003 (ip), vehicle: other): 102 % of control
T/C (dose: 400.0 mg/kg/injection, schedule: Q04DX003 (ip), vehicle: other): 98 % of control

Cl/C=C(\Cl)CCl
T/C (dose: 100.0 mg/kg/injection, schedule: Q01DX009 (ip), vehicle: saline with Tween-80): 100 % of control
T/C [4]: 97 % of control
T/C [6]: 102 % of control
T/C [8]: 105 % of control

COc1ccc(OC)c(NC(=S)NNC(=S)NNc2ccccc2)c1
T/C [10]: 101 % of control
T/C [12]: 104 % of control
T/C [14]: 93 % of control

CCC(Cl)COP(=O)(CC(Cl)CC)OC(C(C)C)P(=O)(OCC(Cl)CC)OCC(Cl)CC (stereo not drawn)
T/C [9]: 108 % of control
T/C [11]: 101 % of control
T/C [13]: 101 % of control

CN(CCc1cnc2nc(N)nc(N)c2n1)c1ccc(C(=O)O)cc1
T/C (dose: 75.0 mg/kg/injection, schedule: Q01DX001 (ip), vehicle: saline): 115 % of control

CC1(N2CCCC2)CCCCC1
T/C (dose: 50.0 mg/kg/injection, schedule: Q01DX001 (ip), vehicle: carboxymethylcellulose (CMC)): 94 % of control
T/C (dose: 100.0 mg/kg/injection, schedule: Q01DX001 (ip), vehicle: carboxymethylcellulose (CMC)): 99 % of control

Cc1cc(=O)[nH]c(NCCCCC(N)C(=O)O)n1 (stereo not drawn)
T/C (dose: 50.0 mg/kg/injection, schedule: Q04DX003 (ip), vehicle: saline): 103 % of control
T/C [4]: 100 % of control
T/C [6]: 101 % of control

— PubChem BioAssay AID248 (DTP/NCI, 2004)
